Measured values taken from US9557338B2 (SIGNAL PHARMACEUTICALS, LLC, priority 2012, dated 2017).
pIC50: −log10 of the molar value. Like-named read-outs stand apart in the source and are kept apart here.

Legend:
Type in all cases: cell-based
p70S6K = assay: Luminex multiplex assay, p70S6K phosphorylation in cell lysates
From the text: (§1) The multiplex Luminex assay format differs from conventional enzyme-linked immunosorbent assay (ELISA) in that the multiplex capture antibody is attached to a polystyrene bead whereas the ELISA capture antibody is attached to the microplate well. The use of the suspension bead-based technology enables the multiplexing capabilities of the Luminex assays. The xMAP® technology uses 5.6 micron polystyrene microspheres, which are internally dyed with red and infrared fluorophores of differing intensities. Each bead is given a unique number, or bead region, allowing differentiation of one bead from another. Beads covalently bound to different specific antibodies can be mixed in the same assay, utilizing a 96-well microplate format. At the completion of the sandwich immunoassay, beads can be read, using the Luminex 100™ or Luminex 200 detection system, in single-file by dual lasers for classification and quantification of each analyte. The Akt-Pathway Phospho 5-plex kit used was custom made and includes the ability to simultaneously measure p-GSK3β (S9), p-PRAS40(T246), and p-4E-BP1(T46).
(§2) Cells were plated at the required density. The cells were treated with either Compound 1 or rapamycin over a range of concentrations for 1 hour in 5% CO2 at 37° C. Compound 1 and rapamycin were used at the same concentrations as for the proliferation assay. As for the cell proliferation assay, a reference standard was included in the assay for PC3 cells and the coefficient of variation for assay of p-GSK3β(S9) was 37.8% (n=30), p-PRAS40(T246) was 27.8% (n=30) and for p4E-BP1(T46) was 13.5% (n=4). For three cell lines (HCT-116, MDA-MB-231 and HT29) in the assay for phosphorylation of GSK3β, PRAS40 and 4E-BP1, IGF-I stimulation (500 ng/mL, recombinant human IGF-I) for the last 10 min of incubation was used. The media was aspirated from the wells and the plate was placed on ice. Then 35 μL of Lysis Buffer was added to each well and incubated on ice for at least 30 minutes. During the incubation, the standard curve for each phosphoprotein was prepared. The standards provided were reconstituted and serial dilutions were prepared according to the manufacturer's instructions. At the end of the cell lysis step, […] of the lysate was transferred to a V-bottom plate and spun at 4° C. at 2000 rpm for 5 minutes. Both the 1× Luminex bead and 1× detector antibody solutions were prepared during this time. The 1× bead solution was vortexed and 25 μL was added into each well of a black round bottom plate. Then 50 μL of the 1× detector antibody was added to each well. Fifty microliters (50 μL) of the prepared standards were added to the designated wells. Then 25 μL of the assay diluent was added to each well designated for the compound-treated cell lysates. At the end of the spin, 25 μL of cell lysate was added to the corresponding wells of the black assay plate. The assay plate was covered with the white plate lid and incubated for 3 hours at room temperature on an orbital shaker.
(§3) Approximately 10-15 minutes prior to the end of the first incubation, the secondary antibody solution was prepared according to the vendor's protocol. Goat anti-rabbit R-phycoerythrin red fluorescent protein (RPE) supplied as a 10× concentrate was diluted to generate a 1× goat anti-rabbit RPE stock. The 96-well filter plate was pre-wet with 200 μL of 1× Working wash solution. At the end of the 3 hour incubation, a multichannel pipette was used to transfer the entire contents from each assay well into the wells of the filter plate. The liquid from the wells was removed by aspiration with the vacuum manifold. Then 200 μL of 1× Working wash solution was added into each well. The wash solution was aspirated using the vacuum manifold after 15-30 seconds. This wash step was repeated one time. The bottom of the plate was blotted on clean paper towels to remove residual liquid. […]

Phospho-PRAS40(T246) = assay: Luminex multiplex assay, Phospho-PRAS40(T246)
From the text: (§4) Determination of Phospho-GSK3β(S9), Phospho-PRAS40(T246) and Phospho-4E-BP1(T46) and the Effect of Compound 1 or Rapamycin.
as §1, §2, §3

Phospho-GSK3β(S9) = assay: Luminex multiplex assay, Phospho-GSK3β(S9); conditions: read-out: Luminex GSK-3β
From the text: as §4, §1, §2, §3

[1] = PC3 cell line, read-out: Luminex p70S6K
[2] = PC3 cell line, read-out: Luminex PRAS40
[3] = Homo sapiens, HCT-116, HCT116 cell line, IGF, read-out: Luminex p70S6K (IGF)
[4] = Homo sapiens, U-87 MG, U87MG cell line, read-out: Luminex p70S6K

| Structure (SMILES) | pIC50 (p70S6K; [1]) | pIC50 (Phospho-PRAS40(T246); [2]) | pIC50 (Phospho-GSK3β(S9); PC3 cell line) | other results |
| --- | --- | --- | --- | --- |
| COCCN1CC(=O)Nc2ncc(-c3ccc(-c4nnc[nH]4)c(F)c3C)nc21 [C-32] | 7.92 | 7.23 | 6.77 |  |
| CO[C@H]1CC[C@H](N2C(=O)CNc3ncc(-c4ccc(-c5nnc[nH]5)nc4C)nc32)C1 [C-56] | 7.35 | 6.95 | 6.57 |  |
| CO[C@H]1CC[C@H](N2C(=O)CNc3ncc(-c4ccc(C(C)(C)O)nc4)nc32)C1 [C-79] | 6.01 | < 5.82 | < 5.82 |  |
| COC1CCC(N2CC(=O)Nc3ncc(-c4ccc(-c5nnc[nH]5)nc4C)nc32)C1 (stereo not shown) [C-53] | 6.63 | 5.94 | 5.94 |  |
| CC(C)(O)c1ccc(-c2cnc3c(n2)N(CCN2CCOCC2)C(=O)CN3)cn1 [C-70] | 6.27 | < 5.82 | 6.15 |  |
| COC1CCC(CN2C(=O)CNc3ncc(-c4cnc(C(N)=O)cc4C)nc32)CC1 (stereo not shown) [C-95] | 7.54 | 6.51 | 6.63 |  |
| CC(C)(O)c1ccc(-c2cnc3c(n2)N(CC2CC2)CC(=O)N3)cn1 [C-17] | 6.26 | 5.54 | < 5.30 |  |
| COCCN1C(=O)CNc2ncc(-c3cccc4[nH]ncc34)nc21 [C-109] | 6.44 | < 5.82 | < 5.82 |  |
| O=C1CNc2ncc(-c3ccc(-c4nnc[nH]4)c(F)c3)nc2N1CCC1CCOCC1 [C-20] | 8.22 | < 7.30 | < 7.30 |  |
| COC1CCC(N2CC(=O)Nc3ncc(-c4ccc(-c5nnc[nH]5)nc4C)nc32)C1 (stereo not shown) [C-52] | 7.06 | 6.02 | 5.96 |  |
| COC1CCC(N2CC(=O)Nc3ncc(-c4ccc(-c5nnc[nH]5)nc4C)nc32)C1 (stereo not shown) [C-51] | 7.34 | 6.09 | 6.07 |  |
| Nc1ccc(-c2cnc3c(n2)N(CCC2CCOCC2)C(=O)CN3)cn1 [C-100] | 7.82 | 6.25 | 6.22 |  |
| CC(C)(O)c1ccc(-c2cnc3c(n2)N(CCC2CCOCC2)CC(=O)N3)cn1 [C-4] | 6.87 | 6.17 | 5.95 |  |
| COC1CCC(N2CC(=O)Nc3ncc(-c4ccc(C(C)(C)O)nc4)nc32)C1 (stereo not shown) [C-23] | 6.68 | 5.84 | 5.75 |  |
| O=C1CN(CCC2CCOCC2)c2nc(-c3cnc4[nH]ccc4c3)cnc2N1 [C-44] | 7.77 | 7.01 | 6.50 |  |
| CO[C@H]1CC[C@@H](CN2C(=O)CNc3ncc(-c4ccc(-c5nc[nH]n5)nc4C)nc32)CC1 [C-66] |  | 7.92 | 7.82 |  |
| Cc1cc(-c2cnc3c(n2)N(CC2CCOCC2)C(=O)CN3)cc2[nH]c(=O)[nH]c12 [C-38] | 5.30 | 5.49 | < 5.30 |  |
| CC(C)(O)c1ccc(-c2cnc3c(n2)N(CCC2CCOCC2)C(=O)CN3)cn1 [C-7] | 7.47 | 6.85 | 6.75 |  |
| CC(C)(O)c1ccc(-c2cnc3c(n2)N(CC2CCOCC2)CC(=O)N3)cc1 [C-11] | 6.70 | 6.12 | 5.93 |  |
| NC(=O)c1ccc(-c2cnc3c(n2)N(CCC2CCOCC2)C(=O)CN3)cc1 [C-63] | 6.67 | 6.07 | 6.03 |  |
| COC1CCC(CN2C(=O)CNc3ncc(-c4ccc(C(C)(C)O)nc4)nc32)CC1 (stereo not shown) [C-42] | 7.80 | 7.36 | 6.57 |  |
| COCCn1c(=O)[nH]c2ncc(-c3cnc4[nH]ccc4c3)nc21 [C-43] | 6.70 | 6.28 | 6.67 |  |
| CC(C)(O)c1ccc(-c2cnc3[nH]c(=O)n(CCC4CCOCC4)c3n2)cn1 [C-3] | 6.61 | 5.88 | 5.59 |  |

| Structure (SMILES) | pIC50 (p70S6K; [1]) | pIC50 (Phospho-PRAS40(T246); [2]) | pIC50 (Phospho-GSK3β(S9); PC3 cell line) | other results |
| --- | --- | --- | --- | --- |
| Cc1cc(C(N)=O)ncc1-c1cnc2c(n1)N(CC1CCOCC1)C(=O)CN2 [C-96] | 6.89 | 6.04 | 6.14 |  |
| CC(C)(O)c1ccc(-c2cnc3c(n2)N([C@H]2CC[C@H](O)CC2)C(=O)CN3)cn1 [C-65] | 7.40 | 6.68 | 6.58 |  |
| Cc1nc(-c2nnc[nH]2)ccc1-c1cnc2c(n1)N(C)C(=O)CN2 [C-99] | 7.96 | 6.56 | 6.46 |  |
| O=c1[nH]c2ncc(-c3ccc(C4(O)COC4)cn3)nc2n1CCC1CCOCC1 [C-77] | < 5.82 | < 5.82 | < 5.82 |  |
| CNc1nc2c(C)cc(-c3cnc4c(n3)N(CCOC)C(=O)CN4)cc2[nH]1 [C-39] | 6.55 | 5.85 | < 5.30 |  |
| COCCN1C(=O)CNc2ncc(-c3ccc(-c4nc[nH]n4)c(F)c3C)nc21 [C-19] | 8.22 | 7.28 | 6.81 |  |
| COCCN1CC(=O)Nc2ncc(-c3ccc(-c4nnc[nH]4)nc3C)nc21 [A-5, 4-(2-methoxyethyl)-6-(2-methyl-6-(4H-1,2,4-triazol-3-yl)pyridin-3-yl)-3,4-dihydropyrazino[2,3-b]pyrazin-2(1H)-one] |  |  |  | pIC50 (p70S6K; [3]): 6.29; pIC50 (p70S6K; [4]): 6.98; pIC50 (Phospho-PRAS40(T246); Homo sapiens, HCT-116, HCT116 cell line, IGF, read-out: Luminex PRAS40 (IGF)): 6.12; pIC50 (Phospho-PRAS40(T246); Homo sapiens, U-87 MG, U87MG cell line, read-out: Luminex PRAS40): 5.96; pIC50 (Phospho-GSK3β(S9); Homo sapiens, U-87 MG, U87MG cell line): 5.67 |
| Cc1c(-c2cnc3c(n2)N(CCC2CCOCC2)CC(=O)N3)ccc(-c2nnc[nH]2)c1F [C-34] | 7.68 | 5.82 | < 5.30 |  |
| CCn1c(=O)[nH]c2ncc(-c3ccc(-c4nnc[nH]4)nc3C)nc21 [A-2, 1-ethyl-6-(2-methyl-6-(4H-1,2,4-triazol-3-yl)pyridin-3-yl)-1H-imidazo[4,5-b]pyrazin-2(3H)-one] |  |  |  | pIC50 (p70S6K; [3]): 5.91; pIC50 (p70S6K; [4]): 6.36 |
| CCN1C(=O)CNc2ncc(-c3ccc4cn[nH]c4c3)nc21 [C-97] | < 5.82 | < 5.82 | < 5.82 |  |
| COCCN1C(=O)CNc2ncc(-c3ccc4cn[nH]c4c3)nc21 [C-107] | 6.84 | < 5.82 | < 5.82 |  |
| COC1CCC(CN2C(=O)CNc3ncc(-c4ccc(-c5nc[nH]n5)nc4C)nc32)CC1 (stereo not shown) [C-46] |  | 6.84 | 6.66 |  |
| COCCN1C(=O)CNc2ncc(-c3cnc(-c4nc[nH]n4)cc3C)nc21 [C-33] | 9.00 |  | 7.09 |  |
| Cc1nc(-c2nnc[nH]2)ccc1-c1cnc2c(n1)N(C1CCC(O)CC1)C(=O)CN2 (stereo not shown) [C-71] |  | 7.43 | 7.40 |  |
| CO[C@H]1CC[C@@H](CN2CC(=O)Nc3ncc(-c4ccc(-c5nnc[nH]5)nc4C)nc32)C1 [C-37] | 7.62 |  |  |  |
| CO[C@@H]1CC[C@H](CN2CC(=O)Nc3ncc(-c4ccc(-c5nnc[nH]5)nc4C)nc32)C1 [C-36] | 7.80 |  |  |  |
| Cc1nc(-c2nnc[nH]2)ccc1-c1cnc2c(n1)N(C1CCOCC1)C(=O)CN2 [C-60] |  | 7.26 | 7.24 |  |
| Cc1nc(-c2nnc[nH]2)ccc1-c1cnc2c(n1)N(CCN1CCOCC1)C(=O)CN2 [C-73] |  | 6.58 | 6.17 |  |
| Cc1nc(-c2nnc[nH]2)ccc1-c1cnc2c(n1)N(C1CCC(O)CC1)C(=O)CN2 (stereo not shown) [C-72] |  | 6.98 | 6.51 |  |
| CCN1CC(=O)Nc2ncc(-c3ccc(-c4nnc[nH]4)nc3C)nc21 [C-45] |  | 5.96 | 6.13 |  |
| COCCN1CC(=O)Nc2ncc(-c3ccc(-c4nnc[nH]4)nc3C)nc21 [C-10] |  | 6.20 | 5.84 |  |
| Cc1cc(-c2nnc[nH]2)ccc1-c1cnc2c(n1)NC(=O)CN2 [C-35] | 6.09 |  |  |  |
